Reference: patent publication US9801922B2, “Compositions and methods of treating cancer” (UNIVERSITY OF IOWA RESEARCH FOUNDATION, priority 2011, dated 2017)

How the values were obtained:
[1] = test system: SUM159 human breast cancer cells; assay: ALDEFLUOR assay of ALDH positive (cancer stem) cell fraction; format: cell-based; settings: for percentage of ALDH positive cell population: 100 μM BSO, 1 μM DTPP 24 h, 500 nM AUR 15 min, control 2.61%; for ALDH positive cell population decreased to (relative to control): single agent
Experimental: FIG. 16: The fraction of Aldehyde dehydrogenase activity positive (ALDH+) cancer cells (also known as early progenitor cancer stem cells) is decreased in SUM159 human breast cancer cells treated with inhibitors of glutathione and thioredoxin metabolism (BSO, AUR, respectively) combined with DTPP. Asynchronously growing cultures of SUM159 were incubated with 100 μM BSO and/or 1 μM DTPP for 24 hours in HMEC media. 500 nM AUR were added into cell culture 15 minutes before the assay. Monolayer cultures were harvested and trypsinized, washed once with PBS and labeled 40 minutes in PBS at 37° C. with BAAA (1 μmol/1 per 1 x 10^6 cells). The negative controls were also added with 50mmol/L diethylaminobenzaldehyde (DEAB). After labeling, Hochest dye for viability assay was added and then kept on ice. Each sample was then analyzed for the ALDH positive cell percentage of 100,000 cells by flow cytometry. Errors represent Mean ±1 SD of 3 samples from two separate experiments […], * p <0.05 as compared to Control.
Estimation of Cancer stem cell fractions using the Aldefluor assay: The ALDEFLUOR kit (StemCell Technologies, Durham, N.C., USA) was used to determine the subpopulation of cancer cells with a high ALDH enzymatic activity. SUM159 human breast cancer cells were plated and treated as described earlier in clonogenic survival experiment. After the exposure, the cells were trypsinized and washed with PBS once then re-suspended in ALDEFLUOR assay buffer containing ALDH substrate (BAAA, 1 μmol/l per 1×10^6 cells) and incubated for 40 minutes at 37° C. As negative control, for each sample of cells an aliquot was treated with 50 mmol/L diethylaminobenzaldehyde (DEAB), a specific ALDH inhibitor. In order to sort out non-viable cells, each sample received 4 μg/ml of Hoechst 33258 (Molecular Probes, Invitrogen). Cells were filtered through […] and kept on ice until analysis. Samples were analyzed by using a Becton Dickinson LSR II with 355 nm, 488 nm, and 633 nm lasers. (Becton Dickinson Immunocytometry System, INC., Mountain View, Calif.). The ALDH positive cells of 100,000 cells were determined by using the sorting gate established with DEAB negative control and Hochest viability control. The ALDH positive cells were represented by percentage of total 100,000 cell events.

[2] = test system: SUM159 human breast cancer cells; assay: Clonogenic cell survival, SUM159; format: cell-based; settings: for cytotoxicity (clonogenic survival), in words: 500 nM AUR 15 min
Experimental: FIGS. 1A-D: BSO, DTPP and AUR treated SUM159, MDA-MB231 and HMEC Clonogenic survival. In Panel A (SUM 159), B (MDA-MB231) and C(HMEC), 150,000 cells/dish SUM159 or MDA-MB231 and 300,000 cells/dish were plated in 60 mm tissue culture dishes. After 48 hours, cells were given fresh complete HMECs media and treated with 100 μM BSO+/1 μM DTPP for 24 hours. 500 nM AUR were added 15 mins before the trypsinization of cells for clonogenic survival assay. In panel A-C, The error bars represent mean±1 SD of n=1 treatment dishes done in 3 separate experiments where each treatment dish was used to prepare 6-10 replicate cloning dishes for analysis. *p<0.001 as compared to Control. […] Mice growing Sum159 xenograft tumors were treated with 100 μM DTPP in drinking water for 2 weeks followed by i.p. injections of BSO 675 mg/kg followed in 2 hrs with Au 2.7 mg/kg. The day following injections tumors were harvested, digested and stained for ALDH positive cells. Each bar represents an average of at least three tumors. Error bars are SEM. *p<0.05 vs. control.
FIG. 2: BSO and AUR treated SUM159 dose response Clonogenic survival. 150,000 cells/dish SUM159 were plated in 60 mm tissue culture dishes. After 48 hours, cells were given fresh complete HMECs media and treated with 100 μM BSO 24 hours. 500 nM AUR were added 15 mins, 30 mins, 45 mins, 1 hr, 1.5 hrs and 3 hrs before the trypsinization. Cells were then collected and plated for clonogenic survival. In panel A-C, The error bars represent mean±1 SD of n=1 treatment dishes done in 3 separate experiments where each treatment dish was used to prepare 6-10 replicate cloning dishes for analysis. *p<0.001 as compared to SUM159 Control. ^p<0.001 as compared to HMEC Control.
FIGS. 3A-3B: Clonogenic survival of SUM159 and MDA-MB231 cells treated with BSO, DTPP and AUR in the presence of 20 mM NAC. Asynchronously growing cultures of SUM159 (panel A) and MDA-MB231 (panel B) were plated as described in FIG. 1. After 48 hours, cells were given fresh complete HMECs media and treated with 100 μM BSO+/1 μM DTPP in the presence or absence of 20 mM NAC for 24 hours. 500 nM AUR were added 15 mins before the trypsinization. cells were then collected and plated for clonogenic survival. In panel A, B, The error bars represent mean±1SD of n=1 treatment dishes done in 3 separate experiments where each treatment dish was used to prepare 6-10 replicate cloning dishes for analysis. *p<0.001 as compared to W/O NAC Control. ^p<0.001 as compared to W/NAC Control.
FIG. 6: BSO, DTPP and AUR treated SUM159 in the presence of 100 U/ml PEGSOD+/PEGCAT Clonogenic survival. Asynchronously growing cultures of SUM159 were plated as described in FIG. 1. After 48 hours, cells were given fresh complete HMECs media and treated with 100 μM BSO+/1 μM DTPP in the presence or absence of PEGSOD+/PEGCAT (100 U/mL each) for 24 hours. Control received PEG alone (18 μM) for 24 hours. 500 nM AUR were added 15 mins before the trypsinization. Cells were then collected and plated for clonogenic survival. In panel A, B, The error bars represent mean±1 SD of n=1 treatment dishes done in 3 separate experiments where each treatment dish was used to prepare 6-10 replicate cloning dishes for analysis. *p<0.001 as compared to PEG alone Control. ^p<0.001 as compared to PEGCAT Control, $ p<0.001 as compared to PEGSOD+CAT Control.
Clonogenic cell survival: To determine whether the DTPP exposure alters the cell proliferation in MDA-MB231, SUM159 and HMECs, 150,000 cells/dish of MDA-MB231 and SUM159 cells, and 300,000 cells/dish HMECs were plated in 60 mm tissue culture dishes. After 48 hours, at 24 hours prior to each clonogenic survival experiment, media in all the dishes were changed to HMECs media and then treated with 100 μM BSO and 1 μM DTPP for 24 h. Cells were treated with AUR for 15 minutes prior to each clonogenic survival experiment. […]

SMILES | percentage of ALDH positive cell population [1] [%] | ALDH positive cell population decreased to (relative to control) [1] | cytotoxicity (clonogenic survival), in words ([2]; 100 μM BSO, 1 μM DTPP 24 h) | effect on ALDH positive cell population, in words ([1]; 100 μM BSO 24 h) | survival fraction (of control cells) in the presence of NAC ([2]; 1 μM DTPP with 20 mM NAC, 24 hrs) | decrease in cell survival / survival fraction compared to control ([2]; 100 μM BSO and/or 1 μM DTPP for 24 hours) | clonogenic cell killing ([2]; 100 μM BSO, 1 μM DTPP 24 h, 500 nM AUR 15 min (FIG. 1A)) | clonogenic survival without PEGSOD+PEGCAT ([2]; PEG alone control) [%] | clonogenic survival with PEGSOD+PEGCAT ([2]; PEGSOD+PEGCAT 100 U/ml each) [%]
CC[PH](CC)(CC)[Au][S][C@@H]1O[C@H](COC(C)=O)[C@@H](OC(C)=O)[C@H](OC(C)=O)[C@H]1OC(C)=O [AUR, S-triethylphosphinegold(I)-2,3,4,6-tetra-O-acetyl-1-thio-β-D-glucopyranoside] | 1.11 | around 50% | did not cause any significant cytotoxicity |  |  |  |  |  | 
CCCCS(=N)(=O)CCC(N)C(=O)O [BSO, L-buthionine-[S,R]-sulfoximine, reference compound] |  |  | did not cause significantly cytotoxicity | not able to decrease the ALDH positive cell population |  |  |  |  | 
CCCCCCCCCC[P+](c1ccccc1)(c1ccccc1)c1ccccc1 [DTPP, Decyl-Triphenylphosphonium] | 1.16 | around 50% |  |  | at least 70% | 70%-80% | at least 70% | 35 | 70
